Source: US10130830B2, “Preservative systems comprising cationic surfactants” (Laboratorios Miret, S.A., priority 2005, dated 2018)
Values joined by “and” are separate entries in the source; they are usually repeats but may differ in a detail not shown here. Equal values may be shown once.

Assays:
Moulds = experiment: Preservative action in cosmetic products (Antimicrobial Effectiveness Testing USP 24th Edition), moulds; format: cell-based, Aspergillus niger; conditions: Example 10, oil in water emulsion with non-ionic surfactant, 0.2 g/kg
Text: (§1) (1) Determination of Preservative Action in Cosmetic Products. […] This assay consists of the contamination of the protecting formulations with an inoculum mixture of 10^8 cfu/ml concentration, for each of the micro-organisms, and the determination of the number of viable cells in time. This inoculum mixture is composed of the following microorganisms: [table] The cosmetic composition to be analysed is divided into sterile containers with 50 g of product for each flask. Each container is inoculated with 0.5 ml of inoculum (10^8 cfu/ml). The target concentration is 10^6 cfu/ml, approximately. All the containers are kept at a temperature between 20-25° C. and are protected from light. The level of the microbial contamination is checked at 0 hours, 7 days, 14 days and 28 days. The number of colonies is evaluated by dilution in buffer peptone with the appropriate neutraliser agent of the preservative. The culture media used for counting the microorganisms are: […] (2) Determination of Preservative Action in Chicken Breast. Process of Preparation • 1. Fresh chicken breast was diced to pieces • 2. Brine (8.70% sodium chloride and 4.35% tripolyphosphate in water) was added to the fresh chicken in an amount of 11.5 g brine per 88.5 g meat in the control preparation and 11.5 g brine and 88.4 g meat in the preparations treated with preservative. • 3. Brine and meat were mixed during 15 minutes, in the preparations treated with preservative the preservative was added after 14 minutes in an amount of 0.2 g/kg. • 4. Vacuum refrigerate tumbling was made during 30 minutes. • 5. Samples were vacuum-packed in sterile bags and they were cooked at 85° C. for 30 minutes. • 6. The cooked chicken was refrigerated at 4° C. • 7. The cooked chicken was diced in irregular shapes. • 8. Then, the nuggets were stored at 10° C. in sterile vacuum-packed bags. Analysis

aerobic total count = experiment: Preservative action in cooked chicken breast, aerobic total count; format: cell-based; conditions: Example 9, cooked chicken, 0.2 g/kg
Description: (2) Determination of Preservative Action in Chicken Breast. Process of Preparation • 1. Fresh chicken breast was diced to pieces • 2. Brine (8.70% sodium chloride and 4.35% tripolyphosphate in water) was added to the fresh chicken in an amount of 11.5 g brine per 88.5 g meat in the control preparation and 11.5 g brine and 88.4 g meat in the preparations treated with preservative. • 3. Brine and meat were mixed during 15 minutes, in the preparations treated with preservative the preservative was added after 14 minutes in an amount of 0.2 g/kg. • 4. Vacuum refrigerate tumbling was made during 30 minutes. • 5. Samples were vacuum-packed in sterile bags and they were cooked at 85° C. for 30 minutes. • 6. The cooked chicken was refrigerated at 4° C. • 7. The cooked chicken was diced in irregular shapes. • 8. Then, the nuggets were stored at 10° C. in sterile vacuum-packed bags. Analysis […] Dilutions were made in buffered peptone water. Tryptone Soya Agar was harvested with each dilution and incubated at 35° C. for 48 hours. The mean value in log cfu/g of three samples per treatment and day of analysis was calculated.

Yeast = experiment: Preservative action in cosmetic products (Antimicrobial Effectiveness Testing USP 24th Edition), yeast; format: cell-based, Candida albicans; conditions: Example 10, oil in water emulsion with non-ionic surfactant, 0.2 g/kg
Text: as §1

Aerobes = experiment: Preservative action in cosmetic products (Antimicrobial Effectiveness Testing USP 24th Edition), aerobes; format: cell-based; conditions: Example 10, oil in water emulsion with non-ionic surfactant, 0.2 g/kg
Text: as §1

[1] = day 56 (8 weeks), mean of triplicate

Row | Structure (SMILES) | Moulds count (Moulds; 0 days) [log cfu/g] | Moulds count (Moulds; 7 days) [log cfu/g] | Moulds count (Moulds; 14 days) [log cfu/g] | aerobic total count, mean (aerobic total count; day 0, mean of triplicate) [log cfu/g] | aerobic total count (aerobic total count; day 0, samples 1-3) [log cfu/g] | aerobic total count, mean (aerobic total count; day 7, mean of triplicate) [log cfu/g] | aerobic total count (aerobic total count; day 7, samples 1-3) [log cfu/g] | aerobic total count, mean (aerobic total count; day 14, mean of triplicate) [log cfu/g] | aerobic total count (aerobic total count; day 14, samples 1-3) [log cfu/g] | aerobic total count, mean (aerobic total count; day 21, mean of triplicate) [log cfu/g] | aerobic total count (aerobic total count; day 21, samples 1-3) | aerobic total count, mean (aerobic total count; day 28, mean of triplicate) [log cfu/g] | aerobic total count (aerobic total count; day 28, samples 1-3) | aerobic total count, mean (aerobic total count; day 35, mean of triplicate) [log cfu/g] | aerobic total count (aerobic total count; day 35, samples 1-3) | aerobic total count, mean (aerobic total count; day 42, mean of triplicate) [log cfu/g] | aerobic total count (aerobic total count; day 42, samples 1-3) | aerobic total count, mean (aerobic total count; day 49, mean of triplicate) [log cfu/g] | aerobic total count (aerobic total count; day 49, samples 1-3) | aerobic total count, mean (aerobic total count; [1]) [log cfu/g] | also measured
1 | CCCCCCCCCCCC(=O)N[C@@H](CCCN=C(N)N)C(=O)OCC.N[C@@H](CCC(=O)O)C(=O)O [LAE Gl, LAE glutamate] | 4.1 | <2.0 | <2.0 | 2.0 | 2.0 | 2.0 | 2.0 | 2.0 | 2.0 | 2.1 | 2.1 log cfu/g and 2.2 log cfu/g and 2.0 log cfu/g | 2.3 | 2.5 log cfu/g and 2.1 log cfu/g and 2.2 log cfu/g | 2.4 | 2.3 log cfu/g and 2.5 log cfu/g | 2.7 | 2.6 log cfu/g and 2.8 log cfu/g | 3.2 | 3.2 log cfu/g and 3.0 log cfu/g and 3.5 log cfu/g | 3.5 | aerobic total count (aerobic total count; day 56, samples 1-3): 3.5 log cfu/g and 3.8 log cfu/g and 3.3 log cfu/g; Yeast count (Yeast; 0 days): 5.6 log cfu/g; Yeast count (Yeast; 7 days): 2.4 log cfu/g; Yeast count (Yeast; 14 days): <2.0 log cfu/g; Aerobes count (Aerobes; 0 days): 6.1 log cfu/g; Aerobes count (Aerobes; 7 days): 2.3 log cfu/g; Aerobes count (Aerobes; 14 days): <2.0 log cfu/g
2 | CC(=O)O.CCCCCCCCCCCC(=O)N[C@@H](CCCN=C(N)N)C(=O)OCC [LAE Ac, LAE acetate] | 4.1 | <2.0 | <2.0 | 2.0 | 2.0 | 2.0 | 2.0 | 2.0 | 2.0 | 2.1 | 2.1 log cfu/g and 2.3 log cfu/g and 2.0 log cfu/g | 2.5 | 3.0 log cfu/g and 2.1 log cfu/g and 2.3 log cfu/g | 2.5 | 2.3 log cfu/g and 2.8 log cfu/g and 2.5 log cfu/g | 3.1 | 3.1 log cfu/g and 2.8 log cfu/g and 3.3 log cfu/g | 3.4 | 3.3 log cfu/g and 3.0 log cfu/g and 3.9 log cfu/g | 3.9 | aerobic total count (aerobic total count; day 56, samples 1-3): 3.8 log cfu/g and 4.0 log cfu/g and 3.9 log cfu/g; Yeast count (Yeast; 0 days): 5.3 log cfu/g; Yeast count (Yeast; 7 days): 2.1 log cfu/g; Yeast count (Yeast; 14 days): <2.0 log cfu/g; Aerobes count (Aerobes; 0 days): 6.0 log cfu/g; Aerobes count (Aerobes; 7 days): 2.5 log cfu/g; Aerobes count (Aerobes; 14 days): <2.0 log cfu/g
3 | CC(O)C(=O)O.CCCCCCCCCCCC(=O)N[C@@H](CCCN=C(N)N)C(=O)OCC [LAE La, LAE lactate] | 4.2 | <2.0 | <2.0 | 2.0 | 2.0 | 2.0 | 2.0 | 2.0 | 2.0 | 2.2 | 2.1 log cfu/g and 2.4 log cfu/g and 2.0 log cfu/g | 2.3 | 2.6 log cfu/g and 2.1 log cfu/g and 2.3 log cfu/g | 2.7 | 2.8 log cfu/g and 2.5 log cfu/g | 3.3 | 3.1 log cfu/g and 3.5 log cfu/g and 3.3 log cfu/g | 3.6 | 3.3 log cfu/g and 3.6 log cfu/g and 3.9 log cfu/g | 4.1 | aerobic total count (aerobic total count; day 56, samples 1-3): 4.2 log cfu/g and 4.0 log cfu/g and 3.9 log cfu/g; Yeast count (Yeast; 0 days): 5.4 log cfu/g; Yeast count (Yeast; 7 days): 2.2 log cfu/g; Yeast count (Yeast; 14 days): <2.0 log cfu/g; Aerobes count (Aerobes; 0 days): 6.1 log cfu/g; Aerobes count (Aerobes; 7 days): 2.2 log cfu/g; Aerobes count (Aerobes; 14 days): <2.0 log cfu/g
